For 35 compounds, IC50 results are on record in patent US20250042857A1, “SOS1 Inhibitor With Pyrido-Fused Six-Membered Ring Structure” (HAIHE BIOPHARMA CO., LTD., priority 2021, published 2025).

The test system of assay [1] is p-ERK of PC-9 cells. Nature of the assay: p-ERK HTRF assay in PC-9 cells. It is filed as cell-based. Conditions: PC-9 lung cancer cells, 1 hour treatment, read-out: IC50, inhibitory activity on p-ERK of PC-9 cells. The procedure: IC50 Values of Compounds Determined by p-ERK HTRF Assay in PC-9 Cells
Experimental objective: an inhibitory effect of the test compounds on the phosphorylation of PC-9ERK of lung cancer cells at a cellular level was evaluated by detecting the phosphorylation of ERK.
• PRMI 1640 medium (Invitrogen-11875093) • 0.25% pancreatin (Invitrogen-25200056) • Phosphoric acid buffer salt solution (PBS, pH 7.4) (Invitrogen-10010023) • Double-antibody (PS) (Invitrogen-15140122) • Fetal bovine serum (FBS) (Gibco-10091148) • Trypan blue (Gibco-15250061) • 10-cm culture dish (Corning-430167) • 10-mL pipette (Costar-4488) • Pipettor (Sartorius-17009031) • 15-mL centrifuge tube (Corning-430052) • 50-mL centrifuge tube (Corning-430829) • Cryotube (Thermo-377267) • 1.5-mL EP tube (Axygen-MCT-150-C-S) • Cell incubator (Thermo-371) • Microscope (Olympus-CKX41) • Centrifuge (Flying Pigeon-TDL-80-2B) • Cell counter (Countstar-IC-1000) • Envision (Perkin Elmer) • Spark 10M (TECAN) • Phospho-ERK1/2 (Thr202/Tyr204) Experimental kit (Cisbio, Cat. No. 64AERPEG) • PC-9 cells: RPMI1640+10% FBS+1% PS
• 1) PBS, 0.25% pancreatin, and a cell culture medium were placed in a water-bath kettle at 37° C. for preheating; • 2) cells were observed under a microscope, a fusion degree was evaluated, and no bacterial and fungi pollution was confirmed; • 3) a culture solution was removed, the cells were washed with 5 mL of PBS and digested with 2 mL of the 0.25% trypsin, the digestion was terminated with 10 mL of the fresh cell culture medium, a culture dish was rinsed, and the cells were transferred to a 15-mL centrifuge tube; • 4) the collected cells were centrifuged at 1,000 rpm for 5 minutes; • 5) after the centrifugation, the supernatant was discarded, the cells were resuspended in 5 mL of the cell culture medium, 20 μL of the resuspended cells were aspirated, and the number and viability of viable cells were recorded; • 6) the cell culture medium was used and the cell density was adjusted (PC-9:10,000 cells/well, and 45 μL per well); • 7) in a 384-well plate, 45 μL of a cell suspension per well was transferred according to an experimental design figure; and • 8) the cells were incubated overnight at 37° C. and 5% CO2.
• 1) The compounds were diluted from the stock concentration to 10 mM with 100% DMSO (Trametinib was diluted to 1 mM), then 3-fold diluted into 10 points (5 μL of the diluted compounds with the concentration of 10 mM were transferred to 10 μL of the DMSO in an LDV plate), and centrifuged at 1,000 rpm/min for 1 minute; • 2) 5 μL of the diluted compounds of step 1) were transferred to an inter plate 1 containing 45 μL of the cell culture medium (the compounds were diluted from 1,000× to 100×); • 3) 5 μL of the diluted compounds of step 2) were transferred to an inter plate 2 containing 45 μL of the cell culture medium (the compounds were diluted from 100× to 10×); • 4) 5 μL of the compounds were pipetted from the inter plate 2 into a cell culture plate (the compounds were diluted from 10 folds to 1 fold), the final concentrations of the test compounds were 10,000 nM, 3333.33 nM, 1111.11 nM, 370.37 nM, 123.46 nM, 41.15 nM, 13.72 nM, 4.57 nM, 1.52 nM, and […], the solution was centrifuged at 1,000 rpm/min for 1 minute, and the final content of the DMSO was 0.1%; and • 5) the cells were treated in an incubator at 37° C. for 1 hour. […]
(In TR-FRET formats the signal depends on donor and acceptor labels being close together.)

Assay [2] deals with KRAS-G12C/SOS1 (Homo sapiens (Human), UniProt Q07889). Nature of the assay: Detection of inhibitory effects of compounds on KRAS-G12C/SOS1 (KRASG12C/SOS binding kit, HTRF). To be noted: Em665/620, read-out: IC50, inhibitory activity on interaction of KRAS-G12C/SOS1. In a few lines: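 HTRF binding of Tag2-KRAS-G12C to Tag1-SOS1 with compounds (10-point 3-fold dilution from 5,000 nM) for 15 min at room temperature, then anti-Tag1-Tb and anti-Tag2-XL665 for 120 min at 4° C. Em665/620 read; inhibition normalised to control wells, IC50 from variable-slope log(inhibitor) fit.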
KRAS-G12C/SOS1, sequence (Q07889 whole entry, stated change not applied): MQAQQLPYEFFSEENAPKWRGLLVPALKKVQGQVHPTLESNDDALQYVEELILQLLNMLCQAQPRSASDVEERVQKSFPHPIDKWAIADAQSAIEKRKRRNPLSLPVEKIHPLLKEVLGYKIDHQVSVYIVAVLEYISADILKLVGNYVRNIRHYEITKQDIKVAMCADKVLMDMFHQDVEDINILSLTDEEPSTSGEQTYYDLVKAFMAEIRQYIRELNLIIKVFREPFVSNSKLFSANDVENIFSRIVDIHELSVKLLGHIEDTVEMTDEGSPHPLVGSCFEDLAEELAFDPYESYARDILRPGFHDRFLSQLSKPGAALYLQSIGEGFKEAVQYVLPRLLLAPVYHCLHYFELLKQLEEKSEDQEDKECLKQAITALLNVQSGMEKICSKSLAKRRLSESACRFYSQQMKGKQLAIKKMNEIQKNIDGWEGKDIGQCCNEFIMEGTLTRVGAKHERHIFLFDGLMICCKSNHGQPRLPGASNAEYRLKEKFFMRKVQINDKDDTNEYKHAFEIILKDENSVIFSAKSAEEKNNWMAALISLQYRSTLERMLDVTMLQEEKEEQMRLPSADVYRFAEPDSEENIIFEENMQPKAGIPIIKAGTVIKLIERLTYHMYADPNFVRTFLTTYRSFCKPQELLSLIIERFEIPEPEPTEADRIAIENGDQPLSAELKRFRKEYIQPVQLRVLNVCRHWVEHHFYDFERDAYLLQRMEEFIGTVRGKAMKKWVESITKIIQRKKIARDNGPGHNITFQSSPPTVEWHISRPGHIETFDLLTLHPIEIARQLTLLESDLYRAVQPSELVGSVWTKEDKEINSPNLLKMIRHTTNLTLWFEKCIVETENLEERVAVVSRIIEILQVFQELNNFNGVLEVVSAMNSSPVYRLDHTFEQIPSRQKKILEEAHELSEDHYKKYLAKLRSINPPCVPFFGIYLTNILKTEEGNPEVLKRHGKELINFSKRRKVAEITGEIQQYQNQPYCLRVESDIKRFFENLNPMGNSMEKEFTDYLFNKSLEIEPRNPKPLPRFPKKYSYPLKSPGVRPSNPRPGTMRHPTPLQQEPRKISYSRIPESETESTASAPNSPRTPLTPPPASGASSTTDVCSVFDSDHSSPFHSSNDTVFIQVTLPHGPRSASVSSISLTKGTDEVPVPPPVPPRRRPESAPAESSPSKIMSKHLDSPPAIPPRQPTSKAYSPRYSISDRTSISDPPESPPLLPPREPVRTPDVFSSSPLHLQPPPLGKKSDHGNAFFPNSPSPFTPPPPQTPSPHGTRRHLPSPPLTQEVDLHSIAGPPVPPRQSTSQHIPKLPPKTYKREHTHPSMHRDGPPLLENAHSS

SMILES strings stand for the structures. Read-outs that look alike come from different tables or passages of the source. Bounds are passed on as bounds.

With `C[C@@H](Nc1ccnc2cnc(C3(O)CCS(=O)(=O)CC3)cc12)c1cccc(C(F)F)c1F` [Compound B-91], the IC50 is 300 to 1000 nM in assay [1] (Homo sapiens, PC-9, 1 h) and not above 100 nM in assay [2].
`CC(=O)N1CCN(c2cc3c(N[C@H](C)c4cccc(C(F)(F)F)c4C)ccnc3cn2)CC1` [Compound B-50]: the IC50 in assay [1] (Homo sapiens, PC-9, 1 h) is not above 300 nM; in assay [2], not above 100 nM.
On to `C[C@@H](Nc1ccnc2cnc(C3(O)CCC(O)CC3)cc12)c1cccc(C(F)(F)F)c1F` (single isomer, unassigned) [Compound B-85-P2], for which the IC50 in assay [1] is not above 300 nM; in assay [2], not above 100 nM.
Turning to `CC(=O)N1CCC(O)(c2cc3c(N[C@H](C)c4cccc(C(F)F)c4F)ccnc3cn2)CC1` [Compound B-17], the IC50 in assay [1] (Homo sapiens, PC-9, 1 h) is not above 300 nM; in assay [2], not above 100 nM.
`C[C@@H](Nc1ccnc2cnc(C3(O)CCN(CCO)CC3)cc12)c1cccc(C#N)c1F` [Compound B-168]: the IC50 in assay [1] (Homo sapiens, PC-9, 1 h) was more than 1000 nM; in assay [2] it was 100 to 500 nM.
`C[C@@H](Nc1ccnc2cnc(C3(O)CCN(CCO)CC3)cc12)c1cccc(C(F)F)c1F` [Compound B-117]: the IC50 in assay [1] (Homo sapiens, PC-9, 1 h) is 300 to 1000 nM; in assay [2], not above 100 nM.
As for `CC(=O)N1C2CCC1CC(O)(c1cc3c(N[C@H](C)c4cccc(C(F)F)c4F)ccnc3c(C)n1)C2` (stereo partly shown) [Compound B-69], the IC50 in assay [1] (Homo sapiens, PC-9, 1 h) was more than 1000 nM; in assay [2], not above 100 nM.
In the same order, the values of `C[C@@H](Nc1ccnc2cnc(C3(O)CCN(C(=O)Cc4ccncc4)CC3)cc12)c1cccc(C(F)F)c1F` [Compound B-139] are not above 300 nM and not above 100 nM.
As to `C[C@@H](Nc1ccnc2cnc(C3(O)CCN(C(=O)[C@H]4C[C@@H](O)CN4C)CC3)cc12)c1cccc(C(F)F)c1F` [Compound B-147], the IC50 in assay [1] (Homo sapiens, PC-9, 1 h) was more than 1000 nM; in assay [2] it was not above 100 nM.
`C[C@@H](Nc1ccnc2cnc(N3CCNCC3)cc12)c1cccc(C(F)F)c1F` [Compound B-22]: the IC50 in assay [1] (Homo sapiens, PC-9, 1 h) was 300 to 1000 nM; in assay [2], not above 100 nM.
In the same order, the values of `C[C@@H](Nc1ccnc2cnc(N3CC[C@@H](N)C3)cc12)c1cccc(C(F)F)c1F` [Compound B-31] are 300 to 1000 nM and not above 100 nM.
On to `C[C@@H](Nc1ccnc2cnc(C3(O)CCC(O)CC3)cc12)c1cccc(C(C)(F)F)c1F` (single isomer, unassigned) [Compound B-87-P2], for which the IC50 is more than 1000 nM in assay [1] and 100 to 500 nM in assay [2].
As to `Cc1nc(C2(O)CCN(C(=O)[C@H](C)O)CC2)cc2c(N[C@H](C)c3cccc(C(F)F)c3F)ccnc12` [Compound B-176], the IC50 is 300 to 1000 nM in assay [1] (Homo sapiens, PC-9, 1 h) and not above 100 nM in assay [2].
In the same order, the values of `CC(=O)N1CCN(c2cc3c(N[C@H](C)c4cccc(C(F)F)c4F)cc(C)nc3cn2)CC1` [Compound B-71] are not above 300 nM and not above 100 nM.
For the compound `C[C@@H](Nc1ccnc2cnc(C3(O)CCN(C(=O)c4ccncc4)CC3)cc12)c1cccc(C(F)F)c1F` [Compound B-131], the IC50 was not above 300 nM in assay [1] (Homo sapiens, PC-9, 1 h) and not above 100 nM in assay [2].
In the same order, the values of `CC(=O)N1CCC(c2cc3c(N[C@H](C)c4cccc(C(F)F)c4F)ccnc3cn2)CC1` [Compound B-4] are not above 300 nM and not above 100 nM.
In the same order, the values of `C[C@@H](Nc1ccnc2cnc(C3(O)CCN(c4ncc(C#N)cn4)CC3)cc12)c1cccc(C(F)F)c1F` [Compound B-156] are not above 300 nM and not above 100 nM.
In the same order, the values of `C[C@@H](Nc1ccnc2cnc(C3(O)CCN(C(=O)[C@H]4CNCCO4)CC3)cc12)c1cccc(C(F)F)c1F` [Compound B-136] are more than 1000 nM and not above 100 nM.
With `C[C@@H](Nc1ccnc2cnc(C3(O)CCN(C(=O)CN4CCC(O)CC4)CC3)cc12)c1cccc(C(F)F)c1F` [Compound B-149], the IC50 in assay [1] (Homo sapiens, PC-9, 1 h) was more than 1000 nM; in assay [2] it was not above 100 nM.
As for `C[C@@H](Nc1ccnc2cnc(C3(O)CCN(C(=O)C4COC4)CC3)cc12)c1cccc(C(F)F)c1F` [Compound B-132], the IC50 is not above 300 nM in assay [1] (Homo sapiens, PC-9, 1 h) and not above 100 nM in assay [2].
Turning to `COc1nc(C2(O)CCC(O)CC2)cc2c(N[C@H](C)c3cccc(C(F)F)c3F)ccnc12` (single isomer, unassigned) [Compound B-178-P1], the IC50 in assay [1] is more than 1000 nM; in assay [2] it was not above 100 nM.
For the compound `C[C@@H](Nc1ccnc2cnc(N3CCN(C)C(=O)C3)cc12)c1cccc(C(F)F)c1F` [Compound B-41], the IC50 in assay [1] (Homo sapiens, PC-9, 1 h) was not above 300 nM; in assay [2], not above 100 nM.
In the same order, the values of `CC(=O)N1CCC(c2cc3c(N[C@H](C)c4cccc(C(F)F)c4F)ccnc3cn2)C1` (stereo partly shown) [Compound B-110] are not above 300 nM and not above 100 nM.
In the same order, the values of `C[C@@H](Nc1ccnc2cnc(C3(O)CCN(C(=O)COC(F)F)CC3)cc12)c1cccc(C(F)F)c1F` [Compound B-141] are not above 300 nM and not above 100 nM.
As for `C[C@@H](Nc1ccnc2cnc(C3(O)CCN(C(=O)CN4CC[C@@H](O)C4)CC3)cc12)c1cccc(C(F)F)c1F` [Compound B-150], the IC50 was more than 1000 nM in assay [1] (Homo sapiens, PC-9, 1 h) and not above 100 nM in assay [2].
In the same order, the values of `C[C@@H](Nc1ccnc2cnc(N3CCC(O)(CO)CC3)cc12)c1cccc(C(F)F)c1F` [Compound B-74] are not above 300 nM and not above 100 nM.
In the same order, the values of `CC(=O)N1CCN(c2cc3c(N[C@H](C)c4cccc(C(F)F)c4F)ccnc3cn2)CC1CO` (stereo partly shown) [Compound B-44] are not above 300 nM and not above 100 nM.
In the case of `C[C@@H](Nc1ccnc2cnc(C3(O)CCC(C(C)(C)O)CC3)cc12)c1cccc(C(F)(F)F)c1F` (single isomer, unassigned) [Compound B-115-P1], the IC50 in assay [1] is more than 1000 nM; in assay [2] it was 100 to 500 nM.
`C[C@@H](Nc1ccnc2cnc(C3(O)CCN(C(=O)N(C)CCO)CC3)cc12)c1cccc(C(F)F)c1F` [Compound B-164]: the IC50 in assay [1] (Homo sapiens, PC-9, 1 h) is not above 300 nM; in assay [2] it was not above 100 nM.
In the same order, the values of `CC(=O)N1CCN(c2cc3c(N[C@H](C)c4cccc(C(F)F)c4F)ccnc3c(C)n2)[C@@H](CO)C1` [Compound B-63] are not above 300 nM and not above 100 nM.
In the same order, the values of `C[C@@H](Nc1ccnc2cnc(-c3ccc(=O)n(C)c3)cc12)c1cccc(C(F)F)c1F` [Compound B-107] are not above 300 nM and not above 100 nM.
`C[C@@H](Nc1ccnc2cnc(C3(O)CCC(O)CC3)cc12)c1cccc(C(F)(F)F)c1F` (single isomer, unassigned) [Compound B-85-P1]: the IC50 in assay [1] (Homo sapiens, PC-9, 1 h) is 300 to 1000 nM; in assay [2], not above 100 nM.
In the same order, the values of `C[C@H](O)C(=O)N1CCC(O)(c2cc3c(N[C@H](C)c4cccc(C(F)(F)F)c4F)ccnc3cn2)CC1` [Compound B-126] are not above 300 nM and not above 100 nM.
For `C[C@@H](Nc1c(F)cnc2cnc(C3(O)CCN(C(=O)CO)CC3)cc12)c1cccc(C(F)F)c1F` [Compound B-123], the IC50 in assay [1] (Homo sapiens, PC-9, 1 h) was not above 300 nM; in assay [2], not above 100 nM.
In the same order, the values of `COCC(=O)N1CCC(O)(c2cc3c(N[C@H](C)c4cccc(C(F)F)c4F)ccnc3cn2)CC1` [Compound B-114] are not above 300 nM and not above 100 nM.
